Values of other authors as cited in article PMC9528030 (ACS chemical biology, 2022).

System: SARS-CoV-2
Conditions: read-out: EC50 in a CPE assay; cited from earlier work

For C[C@@H](OC(C)(C)C)[C@H](NC(=O)OCc1ccccc1)C(=O)N[C@@H](CC1CCCCC1)C(=O)N[C@H](C=O)C[C@@H]1CCNC1=O [MPI8], the EC50 is given as 30 nM.
